In the NIST ThermoML archive (doi:10.1016/j.tca.2016.01.016):
Several values for one entry are separate records, joined by “and”; a condition that tells them apart may be missing. Equal entries are not always repeated. Numbers after ± are expanded uncertainties.

Assay: molar heat capacity at constant pressure
Settings: 101.33 kPa, Crystal, Small sample (50 mg) DSC

O=P([O-])([O-])[O-].[Dy+3] [dysprosium(III) phosphate]
Settings	molar heat capacity at constant pressure
348.15 K	117.5 ± 15 J/K/mol and 118.3 ± 9.6 J/K/mol
353.15 K	119.1 ± 15 J/K/mol and 119.4 ± 9.7 J/K/mol
358.15 K	120.4 ± 14 J/K/mol and 120.4 ± 9.8 J/K/mol
363.15 K	121.5 ± 14 J/K/mol and 121.3 ± 9.9 J/K/mol
368.15 K	122.5 ± 14 J/K/mol and 122.3 ± 9.9 J/K/mol
373.15 K	123.3 ± 14 J/K/mol and 123.2 ± 10 J/K/mol
378.15 K	124.1 ± 14 J/K/mol and 124.1 ± 10 J/K/mol
383.15 K	124.9 ± 14 J/K/mol and 124.9 ± 10 J/K/mol
388.15 K	125.7 ± 14 J/K/mol and 125.7 ± 10 J/K/mol
393.15 K	126.4 ± 14 J/K/mol and 126.5 ± 10 J/K/mol
398.15 K	127.3 ± 14 J/K/mol and 127.3 ± 10 J/K/mol
403.15 K	128.1 ± 14 J/K/mol and 128 ± 10 J/K/mol
408.15 K	128.9 ± 14 J/K/mol and 128.7 ± 10 J/K/mol
413.15 K	129.6 ± 14 J/K/mol and 129.4 ± 10 J/K/mol
418.15 K	130.4 ± 14 J/K/mol and 130.1 ± 11 J/K/mol
423.15 K	131 ± 14 J/K/mol and 130.8 ± 11 J/K/mol
428.15 K	131.7 ± 15 J/K/mol and 131.4 ± 11 J/K/mol
433.15 K	132.3 ± 15 J/K/mol and 132 ± 11 J/K/mol
438.15 K	132.8 ± 15 J/K/mol and 132.6 ± 11 J/K/mol
443.15 K	133.4 ± 15 J/K/mol and 133.2 ± 11 J/K/mol
448.15 K	133.9 ± 16 J/K/mol and 133.8 ± 11 J/K/mol
453.15 K	134.5 ± 16 J/K/mol and 134.3 ± 11 J/K/mol
458.15 K	135 ± 16 J/K/mol and 134.9 ± 11 J/K/mol
463.15 K	135.5 ± 16 J/K/mol and 135.4 ± 11 J/K/mol
468.15 K	136.1 ± 16 J/K/mol and 135.9 ± 11 J/K/mol
473.15 K	136.6 ± 16 J/K/mol and 136.4 ± 11 J/K/mol
478.15 K	137 ± 16 J/K/mol and 136.9 ± 11 J/K/mol
483.15 K	137.4 ± 16 J/K/mol and 137.4 ± 11 J/K/mol
488.15 K	137.9 ± 16 J/K/mol and 137.8 ± 11 J/K/mol
493.15 K	138.3 ± 16 J/K/mol and 138.3 ± 11 J/K/mol
498.15 K	138.7 ± 16 J/K/mol and 138.7 ± 11 J/K/mol
503.15 K	139.1 ± 16 J/K/mol and 139.1 ± 11 J/K/mol
508.15 K	139.5 ± 15 J/K/mol and 139.5 ± 11 J/K/mol
513.15 K	139.9 ± 15 J/K/mol and 140 ± 11 J/K/mol
518.15 K	140.3 ± 15 J/K/mol and 140.3 ± 11 J/K/mol
523.15 K	140.7 ± 15 J/K/mol and 140.7 ± 11 J/K/mol
528.15 K	141 ± 15 J/K/mol and 141.1 ± 12 J/K/mol
533.15 K	141.3 ± 15 J/K/mol and 141.5 ± 12 J/K/mol
538.15 K	141.6 ± 15 J/K/mol and 141.9 ± 12 J/K/mol
543.15 K	142 ± 15 J/K/mol and 142.2 ± 12 J/K/mol
548.15 K	142.4 ± 15 J/K/mol and 142.6 ± 12 J/K/mol
553.15 K	142.7 ± 15 J/K/mol and 142.9 ± 12 J/K/mol
558.15 K	143 ± 15 J/K/mol and 143.2 ± 12 J/K/mol
563.15 K	143.4 ± 16 J/K/mol and 143.6 ± 12 J/K/mol
568.15 K	143.7 ± 16 J/K/mol and 143.9 ± 12 J/K/mol
573.15 K	143.9 ± 16 J/K/mol and 144.2 ± 12 J/K/mol
578.15 K	144.3 ± 16 J/K/mol and 144.5 ± 12 J/K/mol
583.15 K	144.6 ± 16 J/K/mol and 144.8 ± 12 J/K/mol
588.15 K	144.8 ± 16 J/K/mol and 145.1 ± 12 J/K/mol
593.15 K	145.1 ± 16 J/K/mol and 145.4 ± 12 J/K/mol
598.15 K	145.3 ± 16 J/K/mol and 145.7 ± 12 J/K/mol
603.15 K	145.6 ± 16 J/K/mol and 145.9 ± 12 J/K/mol
608.15 K	145.9 ± 16 J/K/mol and 146.2 ± 12 J/K/mol
613.15 K	146.1 ± 16 J/K/mol and 146.5 ± 12 J/K/mol
618.15 K	146.4 ± 16 J/K/mol and 146.8 ± 12 J/K/mol
623.15 K	146.7 ± 16 J/K/mol and 147 ± 12 J/K/mol
628.15 K	147 ± 16 J/K/mol and 147.3 ± 12 J/K/mol
633.15 K	147.3 ± 16 J/K/mol and 147.5 ± 12 J/K/mol
638.15 K	147.5 ± 16 J/K/mol and 147.8 ± 12 J/K/mol
643.15 K	147.8 ± 16 J/K/mol and 148 ± 12 J/K/mol
648.15 K	148 ± 16 J/K/mol and 148.2 ± 12 J/K/mol
653.15 K	148.2 ± 16 J/K/mol and 148.5 ± 12 J/K/mol
658.15 K	148.5 ± 16 J/K/mol and 148.7 ± 12 J/K/mol
663.15 K	148.8 ± 16 J/K/mol and 148.9 ± 12 J/K/mol
668.15 K	149.1 ± 16 J/K/mol and 149.1 ± 12 J/K/mol
673.15 K	149.3 ± 16 J/K/mol and 149.3 ± 12 J/K/mol
678.15 K	149.6 ± 15 J/K/mol and 149.6 ± 12 J/K/mol
683.15 K	149.9 ± 15 J/K/mol and 149.8 ± 12 J/K/mol
688.15 K	150.1 ± 15 J/K/mol and 150 ± 12 J/K/mol
693.15 K	150.4 ± 15 J/K/mol and 150.2 ± 12 J/K/mol
698.15 K	150.7 ± 14 J/K/mol and 150.4 ± 12 J/K/mol
703.15 K	150.9 ± 14 J/K/mol and 150.6 ± 12 J/K/mol
708.15 K	151.1 ± 14 J/K/mol and 150.8 ± 12 J/K/mol
713.15 K	151.4 ± 14 J/K/mol and 151 ± 12 J/K/mol
718.15 K	151.6 ± 14 J/K/mol and 151.1 ± 12 J/K/mol
723.15 K	151.8 ± 13 J/K/mol and 151.3 ± 12 J/K/mol
728.15 K	152 ± 13 J/K/mol and 151.5 ± 12 J/K/mol
733.15 K	152.1 ± 13 J/K/mol and 151.7 ± 12 J/K/mol
738.15 K	152.3 ± 13 J/K/mol and 151.9 ± 12 J/K/mol
743.15 K	152.5 ± 12 J/K/mol and 152 ± 12 J/K/mol
748.15 K	152.7 ± 12 J/K/mol and 152.2 ± 12 J/K/mol
753.15 K	152.9 ± 12 J/K/mol and 152.4 ± 12 J/K/mol
758.15 K	152.9 ± 12 J/K/mol and 152.5 ± 12 J/K/mol
763.15 K	153.1 ± 12 J/K/mol and 152.7 ± 12 J/K/mol
768.15 K	153.3 ± 12 J/K/mol and 152.9 ± 12 J/K/mol
773.15 K	153.4 ± 12 J/K/mol and 153 ± 12 J/K/mol
778.15 K	153.4 ± 12 J/K/mol and 153.2 ± 12 J/K/mol
783.15 K	153.6 ± 12 J/K/mol and 153.3 ± 12 J/K/mol
788.15 K	153.5 ± 12 J/K/mol
793.15 K	153.7 ± 12 J/K/mol and 153.6 ± 12 J/K/mol
798.15 K	153.8 ± 12 J/K/mol
803.15 K	154 ± 12 J/K/mol and 153.9 ± 12 J/K/mol
808.15 K	154.1 ± 12 J/K/mol
813.15 K	154.2 ± 12 J/K/mol
818.15 K	154.3 ± 12 J/K/mol and 154.4 ± 12 J/K/mol
823.15 K	154.4 ± 12 J/K/mol and 154.5 ± 13 J/K/mol
828.15 K	154.5 ± 12 J/K/mol and 154.6 ± 13 J/K/mol
833.15 K	154.5 ± 12 J/K/mol and 154.8 ± 13 J/K/mol
838.15 K	154.6 ± 12 J/K/mol and 154.9 ± 13 J/K/mol
843.15 K	154.8 ± 12 J/K/mol and 155 ± 13 J/K/mol
848.15 K	154.9 ± 12 J/K/mol and 155.2 ± 13 J/K/mol
853.15 K	154.9 ± 13 J/K/mol and 155.3 ± 13 J/K/mol
858.15 K	155 ± 13 J/K/mol and 155.4 ± 13 J/K/mol
863.15 K	155.1 ± 14 J/K/mol and 155.6 ± 13 J/K/mol
868.15 K	155.2 ± 14 J/K/mol and 155.7 ± 13 J/K/mol
